Converted amounts (≈) assume the structure as drawn.
Legend:
hfRPE = type: cell-based, human
Method: Whole mounted Transwells (in duplicate) are photographed.
To evaluate the safety of D4476 and FLBZ, trans-epithelial electrical resistance (TEER) was measured, a measure of tight-junction integrity, in RPE cultures after prolonged exposure to each compound. As well-formed tight-junctions require myriad cell processes to be optimally coordinated, assessing TEER provides an easily measurable, ongoing, and noninvasive marker for general RPE cell health [Ref. 45; incorporated by reference in its entirety]. […] Lactate dehydrogenase (LDH) release, a combined marker of necrotic and late-stage apoptotic cell death [Refs. 47,48; incorporated by reference in their entireties], was reduced compared to vehicle for all four verified RPE autophagy inducers (FIG. 3b). Exposure of RPE cultures to the oxidant tert-butyl hydroperoxide confirmed the ability of the assay to detect cell death (FIG. 10).

primary RPE cultures [1] = assay: Ketone body production (β-hydroxybutyrate, β-HB) fluorometric assay; type: cell-based, human; details: 24 hours, apical supernate
Method: (§1) After 24 hours of exposure to drugs, supernates were collected and subjected to western blotting for APOE detection and a fluorometric assay for β-HB detection [Ref 51; incorporated by reference in its entirety]. Twenty microliters of apical and basolateral supernates for APOE were mixed with SDS sample buffer and blotted with antibody at a dilution of 1:2000. APOE and β-HB values were normalized to the average value of the vehicle and experimental group within each experimental repeat.
(§2) The RPE handles an enormous lipid burden on a daily basis, including OS ingestion from its apical side and lipoprotein particle absorption from its basolateral side. Rather than storing excess lipid, the RPE may choose to degrade or secrete surplus lipids (FIG. 4a). A marker of lipid degradation is the production of KBs, which are secreted by the RPE apically and serve as an energy source for photoreceptors [Refs. 7,8; incorporated by reference in their entireties]. A marker of lipid secretion is the production of the lipoprotein APOE, which is a major component of drusen [Ref. 50; incorporated by reference in its entirety]. It was contemplated that autophagy inducers promote ketogenesis through degradation of ingested lipids, reducing the stimulus for secretion of drusen-promoting APOE.

primary RPE cultures [2] = assay: APOE secretion by western blotting of supernates; type: cell-based, human; details: 24 hours
Method: as §1, §2

primary hfRPE culture = assay: Undigestible autofluorescent material (UAM) accumulation, elimination and granule size after oxOS feedings; type: cell-based, human
ARPE-19 = assay: LC3 colocalization to UAM granules; type: cell-based, human; details: ARPE-19 treated with drug
Excerpt: FIG. 5. Autophagy inducer FLBZ reduces accumulation of lipofuscin-like material. (A) Lipofuscin-like material, which we term undigestible autofluorescent material (UAM), accumulates in RPE after repeated feedings of photo-oxidized outer segments (oxOS). UAM granules (green). DAPI (blue). Phalloidin stain of F-actin outlining cell borders (pink). Scale bar: 10 μm. (B) Effects of FLBZ or Torin on UAM accumulation (left) and elimination (right). FLBZ or Torin is fed together with oxOS daily for 20 days in a month (left, n=5) or fed daily for 20 days in a month after completion of oxOS feedings to stimulate UAM accumulation (right, n=7). Unlike Torin, FLBZ both reduces UAM accumulation and increases UAM elimination. DMSO as vehicle control. U 673 AM normalized to DMSO condition. […] UAM (red). LC3 (green). DAPI (blue). Arrows indicate LC3 puncta surrounding a lipofuscin granule. Scale bar: 2 μm. (D) Effects of FLBZ on UAM granule size. Compared to vehicle (DMSO), FLBZ decreases UAM granule size both during oxOS feedings (left) and after UAM buildup has already occurred (right). n=40. ns p>0.05, *p<0.05, **p<0.01, ***p<0.001.
Human fetal eyes were obtained from Advanced Bioscience Resources (ABR, Alameda, California) and cultured [Ref. 43; incorporated by reference in its entirety]. ARPE-19 cells were cultured at passage 19 [Ref. 51; incorporated by reference in its entirety].

RPE of mouse eye = assay: Intravitreal injection in mouse eyes, autophagy by LC3II/LC3I ratio of lysates; type: in vivo; details: four concentrations up to 500 uM, multiple timepoints, DMSO in other eye
Method: Experiments were conducted during development of embodiments herein to assay for autophagy in the mouse eye. Experiments were conducted to measure autophagy by giving an intraperitoneal injection of leupeptin, followed by assaying for LC3 puncta in an RPE flatmount of a GFP-LC3 mouse. Background from GFP-LC3 debris deposited on the RPE when the retina was peeled off for the flat mount prevented signal detection. A biochemical assay was then employed for autophagy induction, measuring an increase in the lipidation of the autophagy core protein LC3 (lipidated LC3=LC3-II, unlipidated LC3=LC3-I, so higher LC3-II/LC3-I ratio indicates autophagy induction). Sufficient signal as obtained. […] Harvesting techniques were also optimized for collecting RPE from mouse eyes.
Experiments were conducted during development of embodiments herein to establish a positive control for autophagy induction. […] Autophagy induction was measured at 4 different concentrations of Torin (500 nm, 5 um, 50 um, 500 um) and at 5 different timepoints after injection (1 day, 3 days, 7 days, 14 days, 28 days). […] Nevertheless, the ability of intravitreal injections of FLBZ to induce autophagy in the RPE was assessed. In preparation for injecting FLBZ intravitreally into mice, solubility assays were performed and the maximum amount of FLBZ that can be injected without it crashing out of solution in the vitreous was determined. […]

[3] = Solubility assays of DMSO stock mixed with PBS (simulating the vitreous); type: physicochemical
Method: Experiments were conducted during development of embodiments herein to establish a positive control for autophagy induction. The direct mTOR inhibitor Torin1 was selected over rapamycin/sirolimus as the positive control, based on the capacity of Torin1 to induce autophagy in primary culture more strongly and more consistently than rapamycin. The experimental set-up involved injecting one eye with Torin and the other eye with the DMSO vehicle. Autophagy induction was measured at 4 different concentrations of Torin (500 nm, 5 um, 50 um, 500 um) and at 5 different timepoints after injection (1 day, 3 days, 7 days, 14 days, 28 days). […] Nevertheless, the ability of intravitreal injections of FLBZ to induce autophagy in the RPE was assessed. In preparation for injecting FLBZ intravitreally into mice, solubility assays were performed and the maximum amount of FLBZ that can be injected without it crashing out of solution in the vitreous was determined. […] This helped inform maximal concentrations of flubendazole that could be injected intravitreally. Four different concentrations were injected, up to the maximum solubility of FLBZ, and autophagy induction was assayed over a timeframe ranging from 1 week to 4 weeks after injection.

COC(=O)Nc1nc2cc(C(=O)c3ccc(F)cc3)ccc2[nH]1 [FLBZ, Flubendazole]
RPE pigmentation (hfRPE): preserved pigmentation | β-hydroxybutyrate (β-HB) production (primary RPE cultures [1]): increased production | APOE secretion, apical and basolateral (primary RPE cultures [2]): reduced the apical and basolateral secretion of APOE | UAM granule size, drug during oxOS feedings (primary hfRPE culture; concurrent feeding of oxOS and drug): smaller than untreated cultures | UAM accumulation, drug fed concurrently with oxOS (primary hfRPE culture; fed daily with oxOS over a month, FLBZ 12 μM, Torin 1 μM, vs vehicle): significantly less UAM accumulation | UAM granule size, drug after UAM buildup (primary hfRPE culture; twenty drug feedings after UAM accrual): smaller granule size | UAM level, drug fed after UAM had accumulated (primary hfRPE culture; twenty oxOS feedings, wash, then twenty drug feedings over an additional month): significantly lower levels of UAM | LC3 colocalization to UAM granules (ARPE-19): LC3 colocalization to UAM granules | Autophagy induction in RPE after intravitreal injection (LC3II/LC3I ratio) (RPE of mouse eye): no convincing evidence for autophagy induction | solubility ([3]; DMSO stock solution mixed with PBS (simulating the vitreous), aqueous with cosolvent or surfactant or cyclodextrin, kinetic from dmso stock, delivered in 1 ul of DMSO, read-out: Maximum soluble concentration for intravitreal injection): 500 µM (≈ 157 µg/mL) | Precipitation of DMSO stock solution when mixed with PBS ([3]; Torin 1 mM stock mixed 1:1 with PBS, flubendazole 3 mM stock): crashed out when mixed with PBS unless at a dilution of 1:20 or more

Reference: patent publication US20240058308A1, “TREATMENT AND PREVENTION OF DRY MACULAR DEGENERATION” (The Regents of the University of Michigan, priority 2021, published 2024)
